# Reference: the METLIN SMRT retention time set (Domingo-Almenara et al. 2019)
# Experiment: gradient 5% acetonitrile 3 min, to 50% in 2 min, to 85% in 15 min, held 3 min, 100 µL/min
# Details: column: Zorbax Extend-C18 2.1 x 50 mm; eluents: water / acetonitrile, 0.1% formic acid
# Outline: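 In both positive and negative ionization mode, a quadrupole time-of-flight mass spectrometer coupled to HPLC analyzed pure standards run in mixtures of ~100 molecules. The Zorbax Extend-C18 column (2.1 × 50 mm, 1.8 μm) was operated at 100 μL/min with water and acetonitrile, each containing 0.1% formic acid. The dead volume was 40 μL and the dwell volume 900 μL. Retention time came from adduct peaks that were computationally picked and individually inspected by hand.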
row,Compound,RP-LC retention time
1,Cc1oc(-c2[nH]ncc2C(=O)N2CCOCC2)cc1S(=O)(=O)Nc1cccc(F)c1,669 s
2,Clc1cccc(-c2nnc(Cc3nc(-c4ccccc4)no3)o2)c1,1070 s
3,COC1CCC12CCN(Cc1cccc(F)c1)CC2 (centres undefined),637 s
4,Cc1c(Cl)cccc1S(=O)(=O)NCC1CCN(C(=O)c2cc3ccccc3o2)CC1,934 s
5,CCc1noc(-c2cccn2Cc2ccc(OC)c(F)c2)n1,1100 s
6,Cc1ccc2cc(CCC(=O)NCCN3CCCCC3)c(=O)[nH]c2c1,601 s
7,Cn1nc(C(=O)Nc2onc3c2CSC3)ccc1=O,585 s
8,O=S(=O)(Nc1ccc(Nc2ccc(-n3cccn3)nn2)cc1)c1ccc(F)cc1F,788 s
9,COCC(=O)Nc1cc(-c2nc3ccc(C)cc3[nH]2)ccc1C,620 s
10,CN(C)c1cccc(C(=O)NC2CCN(c3cc(-c4cccs4)[nH]n3)C2)c1 (centres undefined),668 s
11,COc1ccc(-c2nc(-c3cn(Cc4cccc(F)c4)nn3)no2)cc1OC,901 s
12,CCCS(=O)(=O)N1CCOc2ccc(NC(=O)NCC)cc2C1,696 s
13,O=C(NCc1noc(C2CCCC2)n1)C1CCCCC1,811 s
14,COC(=O)c1ccc2c(=O)n(-c3cc(C)cc(C)c3)c(N3CCN(Cc4ccccc4)CC3)nc2c1,770 s
15,Cc1cc(C(=O)Nc2ccc3c(c2)OCO3)c2c(C)nn(-c3cccc(F)c3)c2n1,1170 s
16,O=C(CSc1ncnc2c1[nH]c1ccc(F)cc12)N1CCc2ccccc2C1,891 s
17,COc1ccc2[nH]c3c(c2c1)CCNC3c1ccc(F)cc1 (centres undefined),623 s
18,CC(=O)Nc1ccc(C2(C(=O)N3CCCCCC3)CCC2)cc1,769 s
19,CCc1nc2cc(-c3noc(CCc4ccccc4OC)n3)ccc2o1,1190 s
20,CCCn1cc(C(=O)NCCN(C)C)c(S(=O)(=O)N2CCN(c3cccc(Cl)c3)CC2)n1,745 s
21,O=C(CCN1C(=O)C2CC=CCC2C1=O)N1CCN(c2ccccn2)CC1 (centres undefined),558 s
22,COc1cc(NC(=O)NCc2cccs2)ccc1N1CCCCC1=O,645 s
23,Cc1cccc(N2CCN(C(=O)Cn3ccc4ccc(N5CCOCC5)nc43)CC2)c1C,1110 s

row,Compound,RP-LC retention time
1,Cc1c(NC(=O)Cc2csc(NC(=O)C(C)(C)C)n2)c(=O)n(-c2ccccc2)n1C,630 s
2,O=C(NCc1ccc(F)cc1)c1ccc2ncnc(N3CCCC3)c2c1,646 s
3,CCN(c1ccccc1)S(=O)(=O)c1cc(-c2[nH]ncc2C(=O)N2CCCCC2)oc1C,822 s
4,COc1cc(NC(=O)Cn2cccc2-c2nnc(-c3ccccc3)o2)cc(OC)c1,993 s
5,Cc1ccccc1NC(=O)C1CC(=O)N(c2ccc3c(c2)CCN3C(=O)C2CCC2)C1 (centres undefined),803 s
6,CCCNC(=O)c1nnn(Cc2ccc(Cl)cc2)c1-n1cccc1,980 s
7,Cc1nn(C(C)C(=O)NCCN(C)C)c(=O)c2nn(-c3ccccc3)c(C)c12 (centres undefined),601 s
8,Cc1ccc(-c2noc(-c3cccc(S(=O)(=O)N4CCCC4)c3)n2)cc1,1280 s
9,CC1CCCN(c2nc(=O)n(CC(=O)Nc3ccc4c(c3)OCCO4)c3ccccc23)C1 (centres undefined),780 s
10,Cc1nc(-c2cc(S(=O)(=O)NCCCN3CCCC(C)C3)c(C)s2)sc1C (centres undefined),704 s
11,Cc1ccc(Nc2c(-c3ccc(N(C)C)cc3)nc3ccc(Br)cn23)cc1,838 s
12,CN(CCCNC(=O)C1CCCN(c2ncc(-c3cccc(F)c3)cn2)C1)c1ccccc1 (centres undefined),838 s
13,Cc1csc(COc2ccc(C(=O)Nc3ccccc3OC(F)(F)F)cc2)n1,933 s
14,CCOC(=O)C1=C(CNC2CCCCC2)NC(=O)NC1c1ccc(C)cc1 (centres undefined),662 s
15,CCN(CC)C(=O)c1ccc2c(c1)nnn2CCNC(=O)Nc1ccc(Br)cc1,779 s
16,O=C(NCCc1csc(C2CCCN(C(=O)C3CCCO3)C2)n1)C1CC1 (centres undefined),627 s
17,CCS(=O)(=O)N1CC(=O)N(c2ccc(Cl)cc2)C(C)(C(=O)NC2CCCCC2)C1 (centres undefined),882 s
18,Cc1cc(Cl)cc2sc(N(Cc3ccccn3)C(=O)CN(C)S(C)(=O)=O)nc12,1080 s
19,Cc1ccc(C(=O)CC2(O)C(=O)Nc3ccccc32)cc1 (centres undefined),704 s
20,CCOC(=O)c1cc2n(n1)CC(C)(C(=O)NCc1ccccc1)N(Cc1ccccc1)C2=O (centres undefined),880 s
21,COc1cccc(NC(=O)N2CCC(OC3CCN(S(C)(=O)=O)CC3)CC2)c1,731 s
22,COc1ccc(Cl)cc1NC(=O)C1CCN(S(C)(=O)=O)c2cc(C)ccc2O1 (centres undefined),1110 s
23,O=C1N(c2cccc(Cl)c2)c2ncccc2S(=O)(=O)N1Cc1ccccc1,1100 s

row,Compound,RP-LC retention time
1,CCc1cccc(NC(=O)CSc2cc(N3CCN(c4ccccc4OC)CC3)ncn2)c1,1090 s
2,COc1ccc(NC(=O)c2[nH]c3cc(C)sc3c2CN(C)C)c(OC)c1,678 s
3,O=C(C1CC1)N1CCC(F)(C(=O)NCC2CC2)CC1,631 s
4,O=C(NCc1ccco1)C1CCN(C(=O)c2ncn3c2COC(c2ccc(F)cc2)C3)CC1 (centres undefined),711 s
5,Cc1cnc(C2CN(C(=O)C(C)C)C2)n1CC1CC1,562 s
6,Cc1ccc(S(=O)(=O)N2CCC(c3nc(C(=O)N(C)C)c(C)o3)CC2)cc1,818 s
7,CCc1ccc(C2=C(C)C(N3CCCN(C(=O)c4ccoc4)CC3)=NS2(=O)=O)cc1,832 s
8,CN1C(=O)c2[nH]nc(-c3ccccc3)c2C1c1cccc(O)c1 (centres undefined),687 s
9,O=C([C@@H]1C[C@H](F)CN1C(=O)COc1ccc(F)cc1)N1CCCCC1,714 s
10,O=C(Nc1ccc2nc3n(c(=O)c2c1)CCCCC3)C(=O)N1CCc2ccccc21,889 s
11,O=C(COc1ccccc1)N1CCCC(c2n[nH]c(C3CC3)n2)C1 (centres undefined),637 s
12,CCn1cnc(S(=O)(=O)N2CCC(C(=O)Nc3cccc(C)c3C)CC2)c1,721 s
13,CCCCN1C(=O)CN(S(=O)(=O)c2ccccc2)CC1(C)C(=O)NCc1ccc(C)cc1 (centres undefined),805 s
14,O=C(Nc1cccc(C(F)(F)F)c1)c1cnc(-c2ccccc2)nc1-c1ccncc1,859 s
15,CCc1nccn1Cc1noc(-c2cccs2)n1,593 s
16,CCOc1ccc(NC(=O)c2oc3ccc(CC)cc3c2C)c2cccnc12,837 s
17,CCCS(=O)(=O)c1nc2ccc(NS(=O)(=O)c3cccc4nsnc34)cc2s1,878 s
18,O=C(NCc1ccccc1F)c1ccc2c(c1)nc1n2CCN(C2CCCCC2)C1=O,788 s
19,CC(NC(=O)CCc1ccccc1)C(=O)Nc1nc2ccccc2[nH]1 (centres undefined),654 s
20,Cc1noc(C)c1CN1CCN(C(=O)c2ccc3ccccc3n2)CC1,588 s
21,CCOC(=O)c1ccc(Nc2nnc(CSc3nc(C)cc(C)n3)s2)cc1,834 s
22,CCN1c2ccc(C)cc2C(=O)NC12CCN(C(=O)c1cccc(OC)c1)CC2,805 s
23,CCOc1ccccc1-c1nc(Cc2noc(-c3ccccc3)n2)c(C)o1,1170 s

row,Compound,RP-LC retention time
1,CCOC(=O)N1CCN(c2cc(C(=O)O)c3cc(NC(=O)c4ccccc4OC)ccc3n2)CC1,629 s
2,CCN1c2ccc(F)cc2C(=O)NC12CCN(C(=O)c1ccc(F)cc1)CC2,714 s
3,O=C(NCc1cccs1)c1cccc(N2CCNC(c3ccccc3)C2)n1 (centres undefined),579 s
4,CC(=O)N1CCc2cc(S(=O)(=O)C(C)CC(=O)N3CCN(Cc4ccccc4)CC3)ccc21 (centres undefined),960 s
5,CCOCC(=O)N1CC(F)(F)C[C@H]1c1nc(C2CC2)no1,746 s
6,Cc1ccc(-c2ccc(N3CCCC(C(=O)N4CCN(C(C)C)CC4)C3)nn2)cc1C (centres undefined),623 s
7,COc1ccc(-n2c(N(C)C)nc3cc(C(=O)NC4CC4)sc32)cc1,653 s
8,Cc1sc2ncn(CC(=O)NCCCC(=O)N3CCCC(C)C3)c(=O)c2c1C (centres undefined),721 s
9,CC(C)(C)C(=O)N1CCC(C(=O)Nc2cccc(Br)c2)CC1,855 s
10,COCc1nc2cccnc2n1C1CCN(C(=O)Nc2cc(OC)cc(OC)c2)CC1,696 s
11,Cc1ccc(-n2ccc(=O)c(-c3nc(-c4cccc(C)c4)no3)n2)cc1,974 s
12,O=C(c1ccc2ccccc2n1)N1CC(n2ccnc2)C1,604 s
13,CCCNC(=O)c1nc(C)n(C2CCN(S(C)(=O)=O)CC2)c1C,542 s
14,Cc1ccccc1Oc1nccnc1N1CCCC(C(=O)NCc2cccc(C(F)(F)F)c2)C1 (centres undefined),1120 s
15,COc1cccc(-n2c(=O)c(C(=O)Nc3cc(F)ccc3F)c(O)c3cccnc32)c1,1270 s
16,O=C(c1ccco1)N1CCCC(c2nnc(-c3cccs3)o2)C1 (centres undefined),690 s
17,O=C(Cn1ccn2nc(-c3ccccc3)c(CO)c2c1=O)Nc1ccccc1C(F)(F)F,830 s
18,CCN(CC)CCNC(=O)CCc1nc2c(C)nn(-c3ccccc3)c2n(C)c1=O,585 s
19,COc1ccc(C)cc1NC(=O)C1CCN(S(=O)(=O)c2ccc3c(c2)sc(=O)n3C)CC1,827 s
20,O=S(=O)(NCCc1csc(-c2cccc(F)c2)n1)c1ccccc1Cl,989 s
